Here are results for two compounds from publication PMC8035250 (ChemMedChem, 2021).

A word on the Solubility: it is the concentration that dissolves in the medium under given conditions.

Values after ≈ are worked out from the molar mass of the structure shown.

For series [1], the system named is osteoclastogenesis. The series can be described thus: In vitro osteoclast differentiation assay. It counts as cell-based, mice. The note with it: 10 μM inhibitor, rM-CSF and RANKL, 5–7 d.
The conditions of series [2]: ref 14b, cited from earlier work.
The conditions of series [3]: previously reported; ref 14b; cited from earlier work.
For series [4] the following is noted: previously reported; ref 14b; cited from earlier work. This is another data set of the same source.
The conditions of series [5]: previously reported; ref 14b; cited from earlier work. The source holds these as a separate data set.
Series [6] relates to monocytes, MSCs, or mature osteoclasts. The note with it: even at a concentration of 10 μM; ref manuscript submitted; cited from earlier work.
Series [7] relates to MDA-MB-231 breast cancer xenograft. To be noted: cited from earlier work.
The conditions of series [8]: cited from earlier work.

Take `CNC(=O)[C@@H](NC(=O)c1ccc(-c2ccc(CSc3nc4c(c(=O)[nH]3)CCC4)c(F)c2)o1)C(C)C` [RF036]: the “Osteoclastogenesis level compared with control” value in series [1] is 24%. For the same compound, the Solubility in series [2] (converted from […] with MW 499.17 g/mol) is 7.74 µg/mL (≈ 15.5 µM). In addition, the “Solubility class in words” value in series [2] (poor defined as <10 μg/mL or <20 μM) is listed as “poor solubility”. The Human microsome half-life in series [3] was 12 min. For the same compound, in series [4], the Rat microsome half-life is 9 min. The Mouse microsome half-life in series [5] was 20 min. For the same compound, the “Toxicity towards monocytes, MSCs, or mature osteoclasts” value in series [6] is given as “not due to the compound being toxic”.

For `COCCC1(Oc2ccc(Oc3ccc(-c4nc(-c5ccc(F)cc5)co4)cc3)cc2)C(=O)NC(=O)NC1=O` [compound 28, 5-(4-{4-[4-(4-fluorophenyl)-1,3-oxazol-2-yl]phenoxy}phenoxy)-5-(2-methoxyethyl)-pyrimidine-2,4,6 (1H,3H,5H)-trione], the “MDA-MB-231 breast cancer xenograft growth” value in series [7] is recorded as “inhibited MDA-MB-231 breast cancer xenograft growth”. For the same compound, in series [7] (in vivo prevention study), the Osteolytic damage entry is “significantly reduced osteolytic damage”. Moreover, in series [8], the “Creatine kinase (measure of muscle toxicity)” value was “did not cause an increase in creatine kinase”.
